Reference: article PMC4579271, “Inflammatory Signaling by NOD-RIPK2 Is Inhibited by Clinically Relevant Type II Kinase Inhibitors” (Chemistry & Biology, 2015)
Where two headings read alike, the source gives them in different places. One block for each molecule: values may come before it.

How the values were obtained:
[1] = biological target: human RIPK2 recombinant kinase domain (Homo sapiens, UniProt O43353, R171C); experiment: Fluorescence-based thermal shift assay; conditions: for ΔTm at 10 µM: read-out: thermal shift (ΔTm); for thermal shift (ΔTm): RIPK2 2 μM, inhibitor 10 μM
Sequence of human RIPK2 recombinant kinase domain (O43353 8-317 R171C): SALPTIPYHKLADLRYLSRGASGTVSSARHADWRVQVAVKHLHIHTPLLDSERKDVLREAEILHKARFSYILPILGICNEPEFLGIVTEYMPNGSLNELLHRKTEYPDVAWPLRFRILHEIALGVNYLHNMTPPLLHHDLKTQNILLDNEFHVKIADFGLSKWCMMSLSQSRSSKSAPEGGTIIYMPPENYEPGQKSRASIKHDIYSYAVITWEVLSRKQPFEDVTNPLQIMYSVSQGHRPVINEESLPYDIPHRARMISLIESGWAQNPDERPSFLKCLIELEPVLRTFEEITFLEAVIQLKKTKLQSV

Abl = Abl (Homo sapiens, UniProt P00519); experiment: ADPGlo in vitro kinase assay; format: biochemical; conditions: Figure S5A
Sequence of Abl (P00519 whole entry, species assumed): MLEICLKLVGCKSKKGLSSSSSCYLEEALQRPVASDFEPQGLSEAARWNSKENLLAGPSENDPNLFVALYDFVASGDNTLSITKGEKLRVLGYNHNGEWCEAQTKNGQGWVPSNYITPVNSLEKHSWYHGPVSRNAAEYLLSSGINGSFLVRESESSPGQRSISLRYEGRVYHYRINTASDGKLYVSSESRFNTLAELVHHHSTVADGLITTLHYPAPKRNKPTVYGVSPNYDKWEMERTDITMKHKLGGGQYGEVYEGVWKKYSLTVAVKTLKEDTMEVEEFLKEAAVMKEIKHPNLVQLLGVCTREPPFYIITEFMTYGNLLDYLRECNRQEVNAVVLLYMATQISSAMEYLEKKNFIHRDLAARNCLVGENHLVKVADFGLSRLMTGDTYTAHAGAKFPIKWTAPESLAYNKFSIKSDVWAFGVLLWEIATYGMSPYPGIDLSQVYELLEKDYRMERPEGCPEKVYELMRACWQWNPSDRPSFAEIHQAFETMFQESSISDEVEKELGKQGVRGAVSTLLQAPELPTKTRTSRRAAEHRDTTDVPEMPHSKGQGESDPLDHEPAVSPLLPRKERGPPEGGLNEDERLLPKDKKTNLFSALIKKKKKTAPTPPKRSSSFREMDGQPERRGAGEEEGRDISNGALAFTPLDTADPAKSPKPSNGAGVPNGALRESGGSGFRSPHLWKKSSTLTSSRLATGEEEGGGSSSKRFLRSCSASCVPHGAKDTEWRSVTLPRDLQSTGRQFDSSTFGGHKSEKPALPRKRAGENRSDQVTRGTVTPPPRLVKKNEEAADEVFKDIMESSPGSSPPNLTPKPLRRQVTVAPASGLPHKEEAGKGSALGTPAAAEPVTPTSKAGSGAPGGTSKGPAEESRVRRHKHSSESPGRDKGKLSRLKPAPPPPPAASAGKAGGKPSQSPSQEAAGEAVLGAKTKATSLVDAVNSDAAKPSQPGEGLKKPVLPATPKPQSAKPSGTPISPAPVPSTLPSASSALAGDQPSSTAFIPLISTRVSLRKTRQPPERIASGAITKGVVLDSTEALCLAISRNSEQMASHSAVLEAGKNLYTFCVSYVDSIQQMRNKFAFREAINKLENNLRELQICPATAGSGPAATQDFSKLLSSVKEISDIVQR
Protocol: (§1) For ADPGlo (Promega) assays, 1 ng of Abl or 10 ng of RIPK2 was diluted in reaction buffer (40 mM Tris-HCl [pH 7.5], 20 mM MgCl2, 0.5 mM DTT, and 0.01% BSA) supplemented with 50 μM ATP and a 10-point dose range of inhibitors. Detailed information is provided in the Supplemental Experimental Procedures.
(§2) 40C centrifuge at 14,000 rpm for 15 min to collect lysates. Protein concentrations were […]
(§3) Equal amounts of proteins were separated using 8-10% SDS-PAGE, followed by overnight incubations with antibodies according to the manuf acturer’s recommendations.
(§4) AD P G l o in vitro kinase assays
(§5) For ADPGlo (Promega) assays, 1 ng Abl or 10 ng of RIPK2 was diluted in reaction buff er (40 mM Tris-HCl pH 7.5, 20 mM MgCl2, 0.5 m M DTT, 0.01% BSA) supplemented with 50 µM ATP and 10-point dose range of inhibitors. Reactions were performed at room temperature for 1 hour. Reactions were performed in 5 µL total volume (5% final concentration of DMSO) and stopped by addition of 5 µL of ADPGlo reagent for 40 min at room temperature. Luminescent signal was generated by addition of 10 µL of kinase detection reagent for 30 minutes at room temperature and determined using Victor3V platereader (Perkin Elmer). Specific signal was calculated by subtracting values in the wells without protein and inhibitor from the values in the test wells. Inhibition, % = ((specif ic signal (DMSO control) - specif ic signal (inhibitor))/ (specif ic signal (DMSO control))) x 100%. Non-linear regression to determine IC50 values was perf ormed using Prism software (GraphPad). qPCR analysis in RAW 264.7 cells
(§6) RAW cells were seeded at 2X105 cells/well in 12 well plates. Af ter 24 hours, cells were treated with inhibitors and stimulated with 10 µg/mL MDP f or 24 hours. Total RNAs were isolated using […]

RIPK2 [2] = biological target: RIPK2 (Homo sapiens, UniProt O43353); experiment: ADPGlo in vitro kinase assay; format: biochemical; conditions: Figure S5A
Sequence of RIPK2 (Homo sapiens, UniProt O43353) (O43353 18-294 limits assumed): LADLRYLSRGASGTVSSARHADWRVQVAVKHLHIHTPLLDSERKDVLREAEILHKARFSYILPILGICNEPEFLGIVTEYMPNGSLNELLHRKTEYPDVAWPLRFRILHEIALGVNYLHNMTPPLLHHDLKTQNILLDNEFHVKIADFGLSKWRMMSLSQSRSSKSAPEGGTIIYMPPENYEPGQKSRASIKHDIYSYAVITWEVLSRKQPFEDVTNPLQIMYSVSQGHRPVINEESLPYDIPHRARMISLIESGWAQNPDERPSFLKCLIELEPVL
Protocol: as §1, §2, §3, §4, §5, §6

[3] = system: NF-κB activation in HEKBlue cells expressing NOD2; experiment: HEKBlue NF-κB-SEAP reporter activation assay, L18-MDP stimulation; conditions: for inhibition of NOD2 (MDP) response in HEKBlue cells: Figure S5B; for EC50: Homo sapiens, HEK-Blue, 8 h, read-out: NFκB activity EC50
RIPK2 [4] = conditions: ref Vogt et al., 2011; cited from earlier work
[5] = system: LPS pathway in THP-1 cells; experiment: Flow cytometry of TNF production in THP-1 cells, LPS; format: cell-based, human; conditions: 10 μM
Protocol: Figure S7, Related to Figure 7. Inhibition of NOD2 signaling in the human monocytic cell
line THP-1. Representative FACS blots (A) and quantif ication of TNF production (B) in THP-1
cells stimulated with L18-MDP or LPS. In indicated conditions cells were preincubated with
k inase inhibitors for 1 hour before activation of NOD2 and TLR4 receptor for 2.5 hours.
(1 picture or pasted object on this page, not shown here)

[6] = system: RIPK2 ubiquitination in THP-1 cells; experiment: TUBE purification of ubiquitin conjugates, L18-MDP-stimulated THP-1 cells; conditions: 100 nM pre-treatment, 200 ng/ml L18-MDP
[7] = system: NOD2-dependent TNF production in primary human monocytes; experiment: Flow cytometry of intracellular TNF in primary human monocytes, L18-MDP; format: cell-based; conditions: 200 ng/ml L18-MDP
Protocol: Experimental conditions are measured in 4–5 healthy donors. […] Gray background indicates range without inhibitors. See also Figure S7.

[8] = system: phospho-Ser176-RIPK2 (p-RIPK2) in NOD2-expressing HEK293 cells; experiment: Western blot of phospho-Ser176-RIPK2 in HEKBlue cells after L18-MDP

Structure (SMILES): CN1CCC(Nc2ncc3ncnc(Nc4ccc(F)c(Cl)c4)c3n2)CC1 [BIBX1382]
ΔTm at 10 µM [1]: 8.7 °C

inhibition of Abl kinase activity (Abl): loss of inhibition | inhibition of RIPK2 in vitro (RIPK2 [2]): loss of inhibition
Structure (SMILES): CN1CCN(Cc2ccc(NC(=O)c3ccc(C(C)(C)C)c(C#Cc4cnc5cccnn45)c3)cc2C(F)(F)F)CC1 [CS6]
inhibition of NOD2 (MDP) response in HEKBlue cells [3]: did not inhibit

ΔTm at 10 µM [1]: 9.5 °C
Structure (SMILES): Cc1nc(Nc2ncc(C(=O)Nc3c(C)cccc3Cl)s2)cc(N2CCN(CCO)CC2)n1 [Dasatinib]

ΔTm at 10 µM [1]: 9.6 °C
Structure (SMILES): c1cc(-c2cnn3cc(-c4ccc(OCCN5CCCCC5)cc4)cnc23)ccn1 [Dorsomorphin]

Structure (SMILES): COC(=O)[C@@]1(O)C[C@H]2O[C@]1(C)n1c3ccccc3c3c4c(c5c6ccccc6n2c5c31)C(=O)NC4 [K252a]
thermal shift (ΔTm) [1]: 10.0 °C

thermal shift (ΔTm) [1]: 12.1 °C
Structure (SMILES): c1ccc2c(-c3cnn4cc(-c5ccc(N6CCNCC6)cc5)cnc34)ccnc2c1 [LDN-193189]
IC50 (RIPK2 [4]): 25 nM

Structure (SMILES): CN[C@@H]1C[C@H]2O[C@@](C)([C@@H]1OC)n1c3ccccc3c3c4c(c5c6ccccc6n2c5c31)C(=O)NC4 [Staurosporine]
ΔTm at 10 µM [1]: 9.1 °C

thermal shift (ΔTm) [1]: 8.4 °C
Structure (SMILES): Cc1cccc(-c2nn(C(=S)Nc3ccccc3)cc2-c2ccnc3ccccc23)n1 [TGFβ inhibitor IV (A-83-01)]

Structure (SMILES): COc1cc2ncnc(Nc3ccc(F)c(Cl)c3)c2cc1OCCCN1CCOCC1 [gefitinib]
LPS pathway TNF production [5]: also inhibited the LPS pathway | L18-MDP-induced RIPK2 ubiquitination [6]: less robust inhibitory effects

Structure (SMILES): Cc1cn(-c2cc(NC(=O)c3ccc(C)c(Nc4nccc(-c5cccnc5)n4)c3)cc(C(F)(F)F)c2)cn1 [nilotinib]
inhibition of RIPK2 in vitro (RIPK2 [2]): did not inhibit | inhibition of NOD2 (MDP) response in HEKBlue cells [3]: did not inhibit

Structure (SMILES): CNC(=O)c1cc(Oc2ccc(NC(=O)Nc3ccc(Cl)c(C(F)(F)F)c3)c(F)c2)ccn1 [regorafenib]
concentration completely abrogating NOD2-dependent TNF production [7]: 100 nM | EC50 [3]: 3.8 nM | inhibition of L18-MDP-induced p-RIPK2 ([8]; 1 μg/ml L18-MDP, 30 min): inhibited by low nanomolar concentrations | L18-MDP-induced RIPK2 ubiquitination [6]: less robust inhibitory effects

Structure (SMILES): CNC(=O)c1cc(Oc2ccc(NC(=O)Nc3ccc(Cl)c(C(F)(F)F)c3)cc2)ccn1 [sorafenib]
EC50 [3]: 16.9 nM | inhibition of L18-MDP-induced p-RIPK2 [8]: inhibited by low nanomolar concentrations
